Positions of bridges follow the written chain, without caps; N, C: chain ends. Non-standard residues stand in square brackets, D forms with d. Residues, ends and D or L forms follow the SMILES beside them.

The subject of the first test is X4-tropic HIV-1 NL4-3. The conditions noted are these: from IC50 against two HIV-1 strains (NL4-3, DTV). From the text: These cells contain the β-galactosidase reporter gene under the control of the HIV-1 promoter. Thus, activation of the β-galactosidase reporter gene allows to measure the efficiency of HIV-1 infection and thus to quantitate the potency of HIV-1 inhibitors (Detheux M. et al., 2000; Journal of Experimental Medicine 192, 1501-1508; Münch et al., 2002; Antimicrobial Agents and Chemotherapy 46, 982-990).
To perform a typical infection assay, P4-CCR5 cells (Charneau et al., 1994; Journal of Molecular Biology 241, 651-662; Charneau et al., Virology. 1994 205, 247-53) were kept in RPMI 1640 medium supplemented with 10 volume % FCS. This cell line coexpresses CD4 and both HIV-1 coreceptors CCR5 and CXCR4 and contains the β-galactosidase gene under the control of the HIV-1 promoter. Virus stocks were generated by the calcium coprecipitation method as described (Detheux et al., J Exp Med. 192:1501-8; 2000), and the p24 antigen levels were quantitated with an HIV p24 ELISA kit obtained through the NIH AIDS Reagent Program. Cells were seeded in flat-bottomed 96-well dishes, cultured overnight, and incubated with the different doses of peptide for 2 h before infection with virus containing 1 ng of p24 antigen in a total volume of […] of medium. After overnight incubation, cells were washed twice and cultivated in fresh culture medium without inhibitory peptide. Three days after infection the cells were lysed, and infectivity was quantitated using the Galacto-Light Plus™ chemiluminescence reporter assay kit (Tropix, Bedford, Mass.) as recommended by the manufacturer. All infections were performed in quintuplicate.
In the case of `CC[C@H](C)[C@H](NC(=O)[C@H](C)NC(=O)[C@H](CCC(=O)O)NC(=O)[C@@H](N)CC(C)C)C(=O)N1CCC[C@H]1C(=O)N[C@H]1CSSC[C@@H](C(=O)N[C@@H](Cc2ccccc2)C(=O)N[C@@H](CC(C)C)C(=O)N[C@@H](Cc2ccccc2)C(=O)NCC(=O)N[C@@H](CCCCN)C(=O)N2CCC[C@H]2C(=O)N[C@@H](Cc2ccccc2)C(=O)N[C@H](C(=O)N[C@@H](Cc2ccccc2)C(=O)O)C(C)C)NC(=O)[C@@H]2CCCN2C(=O)[C@@H]2CCCN2C(=O)[C@H]([C@@H](C)CC)NC(=O)[C@H](CO)NC1=O` [VIR-280] (H-LEAIPCSIPPCFLFGKPFVF-OH; disulfide 6-11), the “increase in anti-HIV activity in comparison to VIRIP” value was 161 fold.

The same test, now with this note: read-out: IC50 NL4-3; P4-CCR5 cells, HIV-1 NL4-3, peptide 2 h before infection, readout three days after infection.
Turning to `CC[C@H](C)[C@H](NC(=O)[C@@H]1CCCN1C(=O)[C@@H](NC(=O)[C@H](C)NC(=O)[C@H](CCC(=O)O)NC(=O)[C@@H](N)CC(C)C)[C@@H](C)CC)C(=O)N[C@@H](CO)C(=O)N[C@H](C(=O)N1CCC[C@H]1C(=O)N1CCC[C@@H]1C(=O)N[C@@H](CCC(=O)O)C(=O)N[C@H](C(=O)N[C@@H](Cc1ccccc1)C(=O)N[C@@H](Cc1ccccc1)C(=O)NCC(=O)N[C@@H](CCCCN)C(=O)N1CCC[C@H]1C(=O)N[C@@H](Cc1ccccc1)C(=O)N[C@H](C(=O)N[C@@H](Cc1ccccc1)C(=O)O)C(C)C)C(C)C)[C@@H](C)CC` [VIR-290, LEAIPISIPpEVFFGKPFVF] (H-LEAIPISIP[dP]EVFFGKPFVF-OH), the IC50 worked out at 0.562 µM.
Same read-out and setting: under `CC[C@H](C)[C@H](NC(=O)[C@@H]1CCCN1C(=O)[C@@H](NC(=O)[C@H](C)NC(=O)[C@H](CCC(=O)O)NC(=O)[C@@H](N)CC(C)C)[C@@H](C)CC)C(=O)N[C@@H](CO)C(=O)N[C@H](C(=O)N1CCC[C@H]1C(=O)N1CCC[C@@H]1C(=O)N[C@@H](CCC(=O)O)C(=O)N[C@H](C(=O)N[C@@H](Cc1c[nH]c2ccccc12)C(=O)N[C@@H](Cc1ccccc1)C(=O)N[C@@H](CC(N)=O)C(=O)N[C@@H](CCCCN)C(=O)N1CCC[C@H]1C(=O)N[C@@H](Cc1ccccc1)C(=O)N[C@H](C(=O)N[C@@H](Cc1ccccc1)C(=O)O)C(C)C)C(C)C)[C@@H](C)CC` [VIR-298, LEAIPISIPpEVWFNKPFVF] (H-LEAIPISIP[dP]EVWFNKPFVF-OH) stands 0.969 µM; under `CC[C@H](C)[C@H](NC(=O)[C@H](C)NC(=O)[C@H](CCC(=O)O)NC(=O)[C@@H](N)CC(C)C)C(=O)N1CCC[C@H]1C(=O)N[C@@H](CCSC)C(=O)NCC(=O)N[C@H](C(=O)N1CCC[C@H]1C(=O)N1CCC[C@@H]1C(=O)N[C@@H](CCC(=O)O)C(=O)N[C@H](C(=O)N[C@@H](Cc1ccccc1)C(=O)N[C@@H](Cc1ccccc1)C(=O)NCC(=O)N[C@@H](CCCCN)C(=O)N1CCC[C@H]1C(=O)N[C@@H](Cc1ccccc1)C(=O)N[C@H](C(=O)N[C@@H](Cc1ccccc1)C(=O)O)C(C)C)C(C)C)[C@@H](C)CC` [VIR-320, LEAIPMGIPpEVFFGKPFVF] (H-LEAIPMGIP[dP]EVFFGKPFVF-OH), 0.277 µM.
On the same count and under the same terms, the figure for `CC[C@H](C)[C@H](NC(=O)[C@H](C)NC(=O)[C@H](CCC(=O)O)NC(=O)[C@@H](N)CC(C)C)C(=O)N1CCC[C@H]1C(=O)N[C@@H](CCSC)C(=O)NCC(=O)N[C@H](C(=O)N1CCC[C@H]1C(=O)N1CCC[C@@H]1C(=O)N[C@@H](CCC(=O)O)C(=O)N[C@H](C(=O)N[C@@H](Cc1ccccc1)C(=O)N[C@@H](Cc1ccccc1)C(=O)N[C@@H](CC(N)=O)C(=O)N[C@@H](CCCCN)C(=O)N1CCC[C@H]1C(=O)N[C@@H](Cc1ccccc1)C(=O)N[C@H](C(=O)N[C@@H](Cc1ccccc1)C(=O)O)C(C)C)C(C)C)[C@@H](C)CC` [VIR-322, LEAIPMGIPpEVFFNKPFVF] (H-LEAIPMGIP[dP]EVFFNKPFVF-OH) is 0.836 µM; for `CC[C@H](C)[C@H](NC(=O)[C@H](C)NC(=O)[C@H](CCC(=O)O)NC(=O)[C@@H](N)CC(C)C)C(=O)N1CCC[C@H]1C(=O)N[C@@H](CCSC)C(=O)NCC(=O)N[C@H](C(=O)N1CCC[C@H]1C(=O)N1CCC[C@@H]1C(=O)N[C@@H](CCC(=O)O)C(=O)N[C@@H](Cc1ccccc1)C(=O)N[C@@H](CC(C)C)C(=O)N[C@@H](Cc1ccccc1)C(=O)N[C@@H](CC(N)=O)C(=O)N[C@@H](CCCCN)C(=O)N1CCC[C@H]1C(=O)N[C@@H](Cc1ccccc1)C(=O)N[C@H](C(=O)N[C@@H](Cc1ccccc1)C(=O)O)C(C)C)[C@@H](C)CC` [VIR-323, LEAIPMGIPpEFLFNKPFVF] (H-LEAIPMGIP[dP]EFLFNKPFVF-OH) it is 0.924 µM; for `CC[C@H](C)[C@H](NC(=O)[C@H](CC(=O)O)NC(=O)[C@H](CCC(=O)O)NC(=O)[C@@H](N)CC(C)C)C(=O)N1CCC[C@H]1C(=O)N[C@@H](CCSC)C(=O)NCC(=O)N[C@H](C(=O)N1CCC[C@H]1C(=O)N1CCC[C@@H]1C(=O)N[C@@H](CCC(=O)O)C(=O)N[C@H](C(=O)N[C@@H](C)C(=O)N[C@@H](Cc1ccccc1)C(=O)N[C@@H](CC(N)=O)C(=O)N[C@@H](CCCCN)C(=O)N1CCC[C@H]1C(=O)N[C@@H](Cc1ccccc1)C(=O)N[C@H](C(=O)N[C@@H](Cc1ccccc1)C(=O)O)C(C)C)C(C)C)[C@@H](C)CC` [VIR-326, LEDIPMGIPpEVAFNKPFVF] (H-LEDIPMGIP[dP]EVAFNKPFVF-OH) it is 0.963 µM.
Same read-out and setting: the figure for `CC[C@H](C)[C@H](NC(=O)[C@H](C)NC(=O)[C@H](CCC(=O)O)NC(=O)[C@@H](N)CC(C)C)C(=O)N1CCC[C@H]1C(=O)N[C@@H](CCSC)C(=O)NCC(=O)N[C@H](C(=O)N1CCC[C@H]1C(=O)N1CCC[C@@H]1C(=O)N[C@@H](CCC(=O)O)C(=O)N[C@H](C(=O)N[C@@H](Cc1c[nH]c2ccccc12)C(=O)N[C@@H](Cc1ccccc1)C(=O)N[C@@H](CC(N)=O)C(=O)N[C@@H](CCCCN)C(=O)N1CCC[C@H]1C(=O)N[C@@H](Cc1ccccc1)C(=O)N[C@H](C(=O)N[C@@H](Cc1ccccc1)C(=O)O)C(C)C)C(C)C)[C@@H](C)CC` [VIR-328, LEAIPMGIPpEVWFNKPFVF] (H-LEAIPMGIP[dP]EVWFNKPFVF-OH) is 0.685 µM; for `CC[C@H](C)[C@H](NC(=O)[C@H](C)NC(=O)[C@H](CCC(=O)O)NC(=O)[C@@H](N)CC(C)C)C(=O)N1CCC[C@H]1C(=O)N[C@H]1CSSC[C@@H](C(=O)N[C@@H](CC(C)C)C(=O)N[C@@H](C)C(=O)N[C@@H](Cc2ccccc2)C(=O)N[C@@H](C)C(=O)N[C@@H](CCCCN)C(=O)N2CCC[C@H]2C(=O)N[C@@H](Cc2ccccc2)C(=O)N[C@H](C(=O)N[C@@H](Cc2ccccc2)C(=O)O)C(C)C)NC(=O)[C@@H]2CCCN2C(=O)[C@@H]2CCCN2C(=O)[C@H]([C@@H](C)CC)NC(=O)[C@H](CO)NC1=O` [VIR-346] (H-LEAIPCSIPPCLAFAKPFVF-OH; disulfide 6-11) it is 0.541 µM; for `CC[C@H](C)[C@H](NC(=O)[C@H](C)NC(=O)[C@H](CCC(=O)O)NC(=O)[C@@H](N)CC(C)C)C(=O)N1CCC[C@H]1C(=O)N[C@@H](CS)C(=O)N[C@@H](CO)C(=O)N[C@H](C(=O)N1CCC[C@H]1C(=O)N1CCC[C@@H]1C(=O)N[C@@H](CS)C(=O)N[C@H](C(=O)N[C@@H](Cc1ccccc1)C(=O)N[C@@H](Cc1ccccc1)C(=O)NCC(=O)N[C@@H](CCCCN)C(=O)N1CCC[C@H]1C(=O)N[C@@H](Cc1ccccc1)C(=O)N[C@H](C(=O)N[C@@H](Cc1ccccc1)C(=O)O)C(C)C)C(C)C)[C@@H](C)CC` [VIR-350, LEAIPCSIPpCVFFGKPFVF] (H-LEAIPCSIP[dP]CVFFGKPFVF-OH) it is 0.198 µM.

The values above are taken from US7655629B2, “Peptides and their use for the treatment of HIV infections” (priority 2002, dated 2010).
